Laboratory results reported in ChEMBL document CHEMBL1132605 (J Med Chem, 1999).

Columns and labels:
SN12C = assay: Compound was tested for the growth inhibition of SN12C renal tumor cell line; format: functional, cell-based; conditions: Homo sapiens
OVCAR-8 = assay: Compound was tested for the growth inhibition of OVCAR-8 ovarian tumor cell line; format: functional, cell-based; conditions: Homo sapiens
ACHN = assay: Compound was tested for the growth inhibition of ACHN renal tumor cell line; format: functional, cell-based; conditions: Homo sapiens
SF-295 = assay: Compound was tested for the growth inhibition of SF-295 CNS tumor cell line; format: functional, cell-based; conditions: Homo sapiens
PC-3 = assay: Compound was tested for the growth inhibition of PC3 prostate tumor cell line; format: functional, cell-based; conditions: Homo sapiens
HCT-116 = assay: Compound was tested for the growth inhibition of HCT116 colon tumor cell line; format: functional, cell-based; conditions: Homo sapiens
COLO 205 = assay: Compound was tested for the growth inhibition of COLO 205 colon tumor cell line; format: functional, cell-based; conditions: Homo sapiens
[1] = target: T1, Bifunctional dihydrofolate reductase-thymidylate synthase (Toxoplasma gondii, UniProt Q07422)
T1 sequence (Q07422 whole entry): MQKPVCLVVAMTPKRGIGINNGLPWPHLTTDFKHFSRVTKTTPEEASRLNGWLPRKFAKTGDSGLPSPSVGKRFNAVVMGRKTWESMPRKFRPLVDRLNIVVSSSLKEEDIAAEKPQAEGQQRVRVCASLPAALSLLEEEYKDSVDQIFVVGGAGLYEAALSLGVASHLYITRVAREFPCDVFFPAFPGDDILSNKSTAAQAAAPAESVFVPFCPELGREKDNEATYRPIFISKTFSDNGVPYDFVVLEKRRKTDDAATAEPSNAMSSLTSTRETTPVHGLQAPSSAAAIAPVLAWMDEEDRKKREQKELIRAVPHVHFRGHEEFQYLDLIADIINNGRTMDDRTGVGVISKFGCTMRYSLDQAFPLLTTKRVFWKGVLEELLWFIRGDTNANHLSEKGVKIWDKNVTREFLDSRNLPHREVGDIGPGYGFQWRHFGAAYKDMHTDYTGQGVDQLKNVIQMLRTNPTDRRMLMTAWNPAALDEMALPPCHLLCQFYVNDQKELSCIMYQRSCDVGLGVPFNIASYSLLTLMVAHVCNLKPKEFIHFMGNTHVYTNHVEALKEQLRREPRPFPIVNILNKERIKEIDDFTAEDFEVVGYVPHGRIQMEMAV
Description: The ability to inhibit Toxoplasma gondii Dihydrofolate reductase was tested

Dihydrofolate reductase [2] = target: T2, Dihydrofolate reductase (Pneumocystis carinii, UniProt P16184)
T2 sequence (P16184 whole entry): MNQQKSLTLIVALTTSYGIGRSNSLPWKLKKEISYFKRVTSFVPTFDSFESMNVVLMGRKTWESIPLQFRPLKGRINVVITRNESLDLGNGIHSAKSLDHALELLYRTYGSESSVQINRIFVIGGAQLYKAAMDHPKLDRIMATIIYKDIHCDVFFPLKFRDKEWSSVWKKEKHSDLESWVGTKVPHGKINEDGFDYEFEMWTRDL
Description: The ability to inhibit Pneumocystis carinii Dihydrofolate reductase was tested

LOX IMVI = assay: Compound was tested for the growth inhibition of LOX IMVI melanoma tumor cell line; format: functional, cell-based; conditions: Homo sapiens
NCI-H226 = assay: Compound was tested for the growth inhibition of NCI-H226 lung tumor cell line; format: functional, cell-based; conditions: Homo sapiens
786-0 = assay: Compound was tested for the growth inhibition of 786-0 renal tumor cell line; format: functional, cell-based; conditions: Homo sapiens
UACC-257 = assay: Compound was tested for the growth inhibition of UACC-257 melanoma tumor cell line; format: functional, cell-based; conditions: Homo sapiens
MDA-N = assay: Compound was tested for the growth inhibition of MDA-N breast carcinoma cell line; format: functional, cell-based; conditions: Homo sapiens
A498 = assay: Compound was tested for the growth inhibition of A498 renal tumor cell line; format: functional, cell-based; conditions: Homo sapiens
[3] = Ratio of the inhibitory concentrations against [3H]-uracil incorporation into nuclear DNA and Toxoplasma gondii (Tg) DHFR; IC50 ([3H]uracil incorporation)/IC50 (Tg); format: functional
A549 = assay: Compound was tested for the growth inhibition of A549 lung tumor cell line; format: functional, cell-based; conditions: Homo sapiens
[4] = The ability to inhibit [3H]- uracil incorporation by Toxoplasma gondii in cultures of HEL cells was tested; format: functional, cell-based, Homo sapiens
SF-268 = assay: Compound was tested for the growth inhibition of SF-268 CNS tumor cell line; format: functional, cell-based; conditions: Homo sapiens
IGROV-1 = assay: Compound was tested for the growth inhibition of IGROV1 ovarian tumor cell line; format: functional, cell-based; conditions: Homo sapiens
BT-549 = assay: Compound was tested for the growth inhibition of BT-549 breast carcinoma cell line; format: functional, cell-based; conditions: Homo sapiens
EKVX = assay: Compound was tested for the growth inhibition of EKVX lung tumor cell line; format: functional, cell-based; conditions: Homo sapiens
T47D = assay: Compound was tested for the growth inhibition of T-47D breast tumor cell line; format: functional, cell-based; conditions: Homo sapiens
SW-620 = assay: Compound was tested for the growth inhibition of SW-620 colon tumor cell line; format: functional, cell-based; conditions: Homo sapiens
Dihydrofolate reductase [5] = target: T3, Dihydrofolate reductase (Rattus norvegicus, UniProt Q920D2)
T3 sequence (Q920D2 whole entry): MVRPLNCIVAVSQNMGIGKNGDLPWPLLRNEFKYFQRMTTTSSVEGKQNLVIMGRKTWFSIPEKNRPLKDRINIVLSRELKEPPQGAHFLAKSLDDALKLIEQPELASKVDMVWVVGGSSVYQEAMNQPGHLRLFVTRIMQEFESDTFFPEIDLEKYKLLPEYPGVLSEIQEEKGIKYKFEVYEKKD
Description: The ability to inhibit rat liver Dihydrofolate reductase was tested

NCI-H460 = assay: Compound was tested for the growth inhibition of NCI-H460 lung tumor cell line; format: functional, cell-based; conditions: Homo sapiens
KM12 = assay: Compound was tested for the growth inhibition of KM12 colon tumor cell line; format: functional, cell-based; conditions: Homo sapiens
SF-539 = assay: Compound was tested for the growth inhibition of SF-539 CNS tumor cell line; format: functional, cell-based; conditions: Homo sapiens
SK-MEL-5 = assay: Compound was tested for the growth inhibition of SK-MEL-5 melanoma tumor cell line; format: functional, cell-based; conditions: Homo sapiens
OVCAR-3 = assay: Compound was tested for the growth inhibition of OVCAR-3 ovarian tumor cell line; format: functional, cell-based; conditions: Homo sapiens

COc1ccc(CC2CCc3nc(N)nc(N)c3C2)cc1OC (stereo not given)
IC50 (SN12C): 23 µM
IC50 (OVCAR-8): 21 µM
IC50 (ACHN): 0.24 µM
IC50 (SF-295): 0.25 µM
IC50 (PC-3): 0.072 µM
IC50 (HCT-116): 0.04 µM
IC50 (COLO 205): 3.8 µM
IC50 [1]: 0.023 µM
IC50 (Dihydrofolate reductase [2]): 0.1 µM
IC50 (LOX IMVI): 0.07 µM
IC50 (NCI-H226): 12 µM
IC50 (786-0): 0.06 µM
IC50 (UACC-257): 15 µM
IC50 (MDA-N): 0.051 µM
IC50 (A498): 24 µM
Ratio [3]: 3.5
IC50 (A549): 0.06 µM
IC50 [4]: 0.081 µM
IC50 (SF-268): 0.3 µM
IC50 (IGROV-1): 0.13 µM
IC50 (BT-549): 0.27 µM
IC50 (EKVX): 5.7 µM
IC50 (T47D): 19 µM
IC50 (SW-620): 0.99 µM
IC50 (Dihydrofolate reductase [5]): 0.063 µM
IC50 (NCI-H460): 0.04 µM
IC50 (KM12): 1.3 µM

Nc1nc(N)c2c(n1)CCC(Cc1cccc(OC(F)(F)F)c1)C2 (stereo not given)
IC50 [1]: 0.014 µM
IC50 (Dihydrofolate reductase [2]): 0.1 µM
Ratio [3]: 9.3
IC50 [4]: 0.13 µM
IC50 (Dihydrofolate reductase [5]): 0.079 µM

COc1ccccc1CC1CCc2nc(N)nc(N)c2C1 (stereo not given)
IC50 [1]: 0.014 µM
IC50 (Dihydrofolate reductase [2]): 0.45 µM
IC50 (Dihydrofolate reductase [5]): 0.12 µM

Nc1nc(N)c2c(n1)CCC(Cc1cccs1)C2 (stereo not given)
IC50 [1]: 0.062 µM
IC50 (Dihydrofolate reductase [2]): 0.21 µM
IC50 (Dihydrofolate reductase [5]): 0.08 µM

Nc1nc(N)c2c(n1)CCC(Cc1ccccc1)C2 (stereo not given)
IC50 [1]: 0.032 µM
IC50 (Dihydrofolate reductase [2]): 0.29 µM
Ratio [3]: 7.8
IC50 [4]: 0.25 µM
IC50 (Dihydrofolate reductase [5]): 0.18 µM

COc1cc(CC2CCc3nc(N)nc(N)c3C2)cc(OC)c1OC (stereo not given)
IC50 (SN12C): 36 µM
IC50 (SF-539): 1 µM
IC50 (ACHN): 0.27 µM
IC50 (SF-295): 0.25 µM
IC50 (PC-3): 0.19 µM
IC50 (HCT-116): 0.05 µM
IC50 (SK-MEL-5): 0.08 µM
IC50 (COLO 205): 1.6 µM
IC50 [1]: 0.024 µM
IC50 (OVCAR-3): 9.8 µM
IC50 (Dihydrofolate reductase [2]): 0.091 µM
IC50 (LOX IMVI): 0.08 µM
IC50 (786-0): 0.06 µM
IC50 (UACC-257): 27 µM
IC50 (A498): 21 µM
Ratio [3]: 8.8
IC50 (A549): 0.78 µM
IC50 [4]: 0.21 µM
IC50 (SF-268): 0.19 µM
IC50 (IGROV-1): 0.19 µM
IC50 (BT-549): 11 µM
IC50 (EKVX): 0.71 µM
IC50 (T47D): 22 µM
IC50 (Dihydrofolate reductase [5]): 0.038 µM
IC50 (NCI-H460): 0.06 µM
IC50 (KM12): 1.3 µM

CCC1CCc2nc(N)nc(N)c2C1 (stereo not given)
IC50 [1]: 1.1 µM
IC50 (Dihydrofolate reductase [2]): 6.9 µM
IC50 (Dihydrofolate reductase [5]): 3 µM

COc1cc(CN2CCc3nc(N)nc(N)c3C2)cc(OC)c1OC
IC50 [1]: 0.2 µM
IC50 (Dihydrofolate reductase [2]): 6.9 µM
IC50 (Dihydrofolate reductase [5]): 2.2 µM

CC(C)(C)C1CCc2nc(N)nc(N)c2C1 (stereo not given)
IC50 [1]: 0.018 µM
IC50 (Dihydrofolate reductase [2]): 0.18 µM
IC50 (Dihydrofolate reductase [5]): 0.065 µM

Cc1ccccc1CC1CCc2nc(N)nc(N)c2C1 (stereo not given)
IC50 [1]: 0.023 µM
IC50 (Dihydrofolate reductase [2]): 0.25 µM
IC50 (Dihydrofolate reductase [5]): 0.11 µM

COc1ccc(CC2CCc3nc(N)nc(N)c3C2)cc1 (stereo not given)
IC50 [1]: 0.05 µM
IC50 (Dihydrofolate reductase [2]): 0.44 µM
IC50 (Dihydrofolate reductase [5]): 0.077 µM

Nc1nc(N)c2c(n1)CCC(Cc1ccc(OC(F)(F)F)cc1)C2 (stereo not given)
IC50 [1]: 0.073 µM
IC50 (Dihydrofolate reductase [2]): 0.58 µM
IC50 (Dihydrofolate reductase [5]): 0.17 µM

COc1ccc(OC)c(CN2CCc3nc(N)nc(N)c3C2)c1
IC50 [1]: 0.3 µM
IC50 (Dihydrofolate reductase [2]): 3.3 µM
IC50 (Dihydrofolate reductase [5]): 1.4 µM

Nc1nc(N)c2c(n1)CCC(Cc1cccc(C(F)(F)F)c1)C2 (stereo not given)
IC50 [1]: 0.14 µM
IC50 (Dihydrofolate reductase [2]): 0.4 µM
IC50 (Dihydrofolate reductase [5]): 0.19 µM

Cc1cccc(CC2CCc3nc(N)nc(N)c3C2)c1 (stereo not given)
IC50 [1]: 0.036 µM
IC50 (Dihydrofolate reductase [2]): 0.34 µM
IC50 (Dihydrofolate reductase [5]): 0.11 µM

COc1ccc(OC)c(CC2CCc3nc(N)nc(N)c3C2)c1 (stereo not given)
IC50 (SN12C): 15 µM
IC50 (SF-539): 0.43 µM
IC50 (OVCAR-8): 21 µM
IC50 (PC-3): 0.035 µM
IC50 (HCT-116): < 0.01 µM
IC50 (COLO 205): 10 µM
IC50 [1]: 0.021 µM
IC50 (OVCAR-3): 15 µM
IC50 (Dihydrofolate reductase [2]): 0.057 µM
IC50 (LOX IMVI): 0.06 µM
IC50 (NCI-H226): 31 µM
IC50 (786-0): 0.06 µM
IC50 (UACC-257): 8.4 µM
IC50 (MDA-N): < 0.01 µM
IC50 (A498): 10 µM
IC50 (A549): < 0.01 µM
IC50 (BT-549): 0.33 µM
IC50 (EKVX): 16 µM
IC50 (T47D): 20 µM
IC50 (SW-620): 0.32 µM
IC50 (Dihydrofolate reductase [5]): 0.034 µM
IC50 (NCI-H460): < 0.01 µM
IC50 (KM12): 2.7 µM

Nc1nc(N)c2c(n1)CCC(Cc1ccc(Cl)c(Cl)c1)C2 (stereo not given)
IC50 [1]: 2.6 µM
IC50 (Dihydrofolate reductase [2]): 15 µM
IC50 (Dihydrofolate reductase [5]): 7.3 µM

COc1cccc(CC2CCc3nc(N)nc(N)c3C2)c1 (stereo not given)
IC50 [1]: 0.021 µM
IC50 (Dihydrofolate reductase [2]): 0.27 µM
IC50 (Dihydrofolate reductase [5]): 0.11 µM

Nc1nc(N)c2c(n1)CCC(Cc1ccsc1)C2 (stereo not given)
IC50 [1]: 0.049 µM
IC50 (Dihydrofolate reductase [2]): 1.7 µM
IC50 (Dihydrofolate reductase [5]): 0.13 µM

CCc1nc(N)nc(N)c1-c1ccc(Cl)cc1 [PYRIMETHAMINE]
IC50 [4]: 0.67 µM

Nc1nc(N)c2c(n1)CCC(c1ccccc1)C2 (stereo not given)
IC50 [1]: 1.3 µM
IC50 (Dihydrofolate reductase [2]): 2.2 µM
IC50 (Dihydrofolate reductase [5]): 1.9 µM

Nc1nc(N)c2c(n1)CCC(CC1CCCO1)C2 (stereo not given)
IC50 [1]: 0.04 µM
IC50 (Dihydrofolate reductase [2]): 0.88 µM
IC50 (Dihydrofolate reductase [5]): 0.27 µM
